Experimental data from the supplement of paper PMC10307832.

How the values were obtained:
Assay in all cases: relative viability (nuclei count vs DMSO), 5 days (fraction); higher = more cells survive
Vismodegib + Alpelisib = compound: CS(=O)(=O)c1ccc(C(=O)Nc2ccc(Cl)c(-c3ccccn3)c2)c(Cl)c1 [Vismodegib] + Cc1nc(NC(=O)N2CCC[C@H]2C(N)=O)sc1-c1ccnc(C(C)(C)C(F)(F)F)c1 [Alpelisib] (partner 2 µM)
Method in brief: (§1)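 Lung cancer cell lines were pin-tool dosed in 1536-well plates on the day after seeding, with either a lone drug or a fixed anchor-drug dose plus five library-drug doses (not always all listed) in √10 steps. Nuclei were counted on 4× images after 5 days. Relative viability is the ratio of treated-well to vehicle-well nuclei counts, with each value a median of duplicate plates.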

Vismodegib + Crizotinib = compound: CS(=O)(=O)c1ccc(C(=O)Nc2ccc(Cl)c(-c3ccccn3)c2)c(Cl)c1 [Vismodegib] + C[C@@H](Oc1cc(-c2cnn(C3CCNCC3)c2)cnc1N)c1c(Cl)ccc(F)c1Cl [Crizotinib] (partner 1 µM)
Method in brief: as §1

Ruxolitinib + Alpelisib = compound: N#CC[C@H](C1CCCC1)n1cc(-c2ncnc3[nH]ccc23)cn1 [Ruxolitinib] + Cc1nc(NC(=O)N2CCC[C@H]2C(N)=O)sc1-c1ccnc(C(C)(C)C(F)(F)F)c1 [Alpelisib] (partner 2 µM)
Method in brief: as §1

VE-821 + Alpelisib = compound: CS(=O)(=O)c1ccc(-c2cnc(N)c(C(=O)Nc3ccccc3)n2)cc1 [VE-821] + Cc1nc(NC(=O)N2CCC[C@H]2C(N)=O)sc1-c1ccnc(C(C)(C)C(F)(F)F)c1 [Alpelisib] (partner 2 µM)
Method in brief: as §1

Row | Cell Line | relative viability (Vismodegib + Alpelisib; first compound 0.08 µM) | relative viability (Vismodegib + Alpelisib; first compound 0.253 µM) | relative viability (Vismodegib + Alpelisib; first compound 0.8 µM) | relative viability (Vismodegib + Alpelisib; first compound 2.53 µM) | relative viability (Vismodegib + Alpelisib; first compound 8 µM) | relative viability (Vismodegib + Crizotinib; first compound 0.08 µM) | relative viability (Vismodegib + Crizotinib; first compound 0.253 µM) | relative viability (Vismodegib + Crizotinib; first compound 0.8 µM) | relative viability (Vismodegib + Crizotinib; first compound 2.53 µM) | relative viability (Vismodegib + Crizotinib; first compound 8 µM) | relative viability (Ruxolitinib + Alpelisib; first compound 0.08 µM) | relative viability (Ruxolitinib + Alpelisib; first compound 0.253 µM) | relative viability (Ruxolitinib + Alpelisib; first compound 0.8 µM) | relative viability (Ruxolitinib + Alpelisib; first compound 2.53 µM) | relative viability (Ruxolitinib + Alpelisib; first compound 8 µM) | relative viability (VE-821 + Alpelisib; first compound 0.08 µM) | relative viability (VE-821 + Alpelisib; first compound 0.253 µM) | relative viability (VE-821 + Alpelisib; first compound 0.8 µM) | relative viability (VE-821 + Alpelisib; first compound 2.53 µM) | relative viability (VE-821 + Alpelisib; first compound 8 µM)
1 | 201T | 1.03 | 0.996 | 0.994 | 1.07 | 0.984 | 0.954 | 1.06 | 0.997 | 1.02 | 1.01 | 1.11 | 1.11 | 1.27 | 1.39 | 1.33 | 1.11 | 1.03 | 0.878 | 1.09 | 0.85
2 | A549 | 0.658 | 0.673 | 0.73 | 0.734 | 0.69 | 0.711 | 0.759 | 0.796 | 0.672 | 0.686 | 0.775 | 0.708 | 0.841 | 0.574 | 0.495 | 0.995 | 0.746 | 0.624 | 0.872 | 0.548
3 | A-427 | 1.02 | 1.04 | 0.965 | 1.09 | 1.1 | 0.833 | 0.838 | 0.927 | 0.857 | 0.882 | 1.09 | 1.03 | 1.07 | 1.06 | 1.03 | 1.01 | 1.03 | 1.08 | 1.12 | 0.706
4 | ABC-1 | 0.994 | 1.13 | 1.08 | 0.83 | 0.949 | 0.6 | 0.827 | 1.12 | 0.993 | 0.958 | 1.08 | 1.09 | 1.17 | 1.03 | 0.855 | 1.21 | 0.854 | 0.91 | 1.03 | 0.904
5 | BEN | 1.03 | 0.988 | 0.863 | 0.984 | 1.02 | 0.779 | 0.927 | 0.807 | 0.934 | 0.986 | 0.944 | 0.965 | 1.16 | 0.956 | 1.08 | 1.09 | 1.01 | 0.877 | 0.968 | 0.976
6 | CAL-12T | 1.12 | 1.02 | 1.37 | 1.2 | 1.3 | 0.693 | 0.761 | 0.685 | 0.773 | 0.807 | 1.26 | 1.31 | 1.25 | 1.05 | 0.78 | 1.22 | 1.08 | 1.37 | 1.32 | 0.837
7 | COR-L23 | 0.77 | 0.672 | 0.689 | 0.756 | 0.819 | 0.593 | 0.589 | 0.603 | 0.591 | 0.816 | 0.854 | 0.827 | 0.821 | 0.731 | 0.502 | 0.787 | 0.714 | 0.746 | 0.837 | 0.525
8 | COR-L 105 | 0.832 | 0.882 | 0.847 | 0.839 | 0.868 | 0.63 | 0.728 | 0.751 | 0.773 | 0.715 | 0.771 | 1.03 | 0.84 | 0.86 | 0.718 | 1 | 1 | 0.674 | 0.891 | 0.58
9 | Calu-6 | 0.97 | 0.976 | 0.901 | 1.09 | 0.979 | 0.705 | 0.754 | 0.757 | 0.814 | 0.886 | 1.02 | 1.03 | 1.09 | 0.851 | 0.673 | 0.988 | 0.896 | 0.939 | 0.972 | 0.66
10 | ChaGo-K-1 |  |  |  |  |  | 1.19 | 1.09 | 1.13 | 1.06 | 1.22 |  |  |  |  |  |  |  |  |  | 
11 | EBC-1 | 0.838 | 0.891 | 0.876 | 0.789 | 0.891 | 0.173 | 0.201 | 0.168 | 0.182 | 0.202 | 0.833 | 0.889 | 0.997 | 0.876 | 0.777 | 0.888 | 0.75 | 0.742 | 0.779 | 0.683
12 | EKVX | 0.946 | 0.974 | 0.907 | 0.871 | 0.875 | 0.849 | 0.895 | 0.898 | 1.09 | 0.952 | 0.769 | 0.862 | 1 | 0.92 | 0.832 | 0.977 | 0.842 | 0.535 | 0.8 | 0.61
13 | EMC-BAC-2 | 0.716 | 0.763 | 0.819 | 0.732 | 0.754 | 0.768 | 0.797 | 0.72 | 0.73 | 0.796 | 0.725 | 0.72 | 0.742 | 0.637 | 0.568 | 0.877 | 0.782 | 0.721 | 0.75 | 0.757
14 | EPLC-272H | 0.894 | 0.888 | 0.872 | 1 | 0.931 | 0.899 | 0.849 | 0.856 | 0.867 | 1.04 | 0.841 | 0.903 | 1.07 | 1.06 | 1.01 | 0.998 | 0.858 | 0.694 | 1.23 | 0.807
15 | H3255 | 0.75 | 0.676 | 0.764 | 0.752 | 0.543 | 0.812 | 0.737 | 0.965 | 0.913 | 0.597 |  | 0.599 | 0.749 | 0.521 | 0.608 | 0.821 | 0.76 | 0.665 | 0.844 | 0.66
16 | HARA | 0.833 | 0.863 | 0.817 | 0.8 | 0.788 | 0.956 | 0.965 | 1.03 | 1.05 | 1.06 | 0.862 | 0.817 | 0.785 | 0.697 | 0.857 | 1.05 | 0.912 | 0.688 | 0.926 | 0.704
17 | HCC-15 | 0.894 | 0.822 | 0.871 | 0.866 | 0.83 | 0.782 | 0.859 | 0.889 | 0.879 | 0.83 | 0.844 | 0.875 | 0.923 | 0.812 | 0.73 | 0.976 | 0.923 | 1.01 | 0.999 | 0.961
